Structures can show the parent of a compound that is named as a salt.
Assays:
EBC-1 cells = experiment: EBC-1 cell proliferation experiment (CellTiter-Glo); assay type: cell-based, human; settings: 3 days
Description: MEM medium, fetal bovine serum, penicillin/streptomycin antibiotics were purchased from Wisent. EBC-1 cell line was purchased from Nanjing COBIO Bioscience Co., LTD. Envision multi-label analyzer (PerkinElmer).
EBC-1 cells were seeded in a white 96-well plate, […] cell suspension per well, which contained 3000 EBC-1 cells. The cell plate was placed in a carbon dioxide incubator for overnight culture.
The compound to be tested was diluted 5-fold to the eighth concentration with a discharge gun, i.e., from 2 mM to […], and double duplicate wells experiment was set. 78 μL of the medium was added to the middle plate, then 2 μL per well of gradient diluted compound was transferred to the corresponding position on the middle plate, then mixed well and 20 μL per well was transferred to the cell plate. The cell plate was cultured in a carbon dioxide incubator for 3 days. Another cell plate was prepared and the signal values were read on the day of dosing as […] to be used in the data analysis. 25 μL of Promega CellTiter-Glo was added to each well of this cell plate, and incubated at room temperature for 10 minutes to stabilize the luminescence signal. Readings were taken using a PerkinElmer Envision multi-label analyzer.
25 μL of Promega CellTiter-Glo reagent was added to each well of this cell plate, and incubated at room temperature for 10 minutes to stabilize the luminescence signal. Readings were taken using a PerkinElmer Envision multi-label analyzer.
Using the equation (Sample-Min)/(Max-Min)*100% to convert the original data to the inhibition rate, the IC50 value can be obtained by curve fitting with four parameters (obtained by “log(inhibitor) vs. response in GraphPad Prism—Variable slope mode).

c-Met enzyme = c-Met enzyme (Homo sapiens (Human), UniProt P08581); experiment: c-Met enzyme activity inhibition (Promega c-Met Kinase Enzyme System, ADP-Glo); assay type: biochemical; settings: 10 μM ATP, 60 min, 30° C.
Chain of c-Met enzyme (P08581 956-1390): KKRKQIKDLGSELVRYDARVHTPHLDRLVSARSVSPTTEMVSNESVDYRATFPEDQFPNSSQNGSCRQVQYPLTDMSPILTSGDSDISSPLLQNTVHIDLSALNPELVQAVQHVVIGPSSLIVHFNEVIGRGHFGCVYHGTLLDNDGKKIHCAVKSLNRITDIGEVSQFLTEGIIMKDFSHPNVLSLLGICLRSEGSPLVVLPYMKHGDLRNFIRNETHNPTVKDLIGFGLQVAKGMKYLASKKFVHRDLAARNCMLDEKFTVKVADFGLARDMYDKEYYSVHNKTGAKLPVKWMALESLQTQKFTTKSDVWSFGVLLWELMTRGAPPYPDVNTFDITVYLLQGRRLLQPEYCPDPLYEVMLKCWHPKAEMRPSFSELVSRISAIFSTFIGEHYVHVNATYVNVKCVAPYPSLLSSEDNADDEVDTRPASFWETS
Description: To detect the inhibitory effect of the compounds on c-Met enzyme activity.
The c-Met Kinase Enzyme System was purchased from Promega. Envision multi-label analyzer (PerkinElmer).
The kinase buffer in the kit was used to dilute the enzyme, substrate, ATP and inhibitor.
The compound to be tested was diluted 5-fold to the eighth concentration with a discharge gun, i.e., from 50 μM to […], with a final DMSO concentration of 5%, and double duplicate wells experiment was set. 1 μL of each concentration gradient of the inhibitor, 2 μL of c-Met enzyme (4 ng), 2 μL of a mixture of the substrate and ATP (10 μM ATP, 0.2 μg/μL poly E4Y1) were added to the microplate, and the final concentration gradient of the compound of 10 μM was diluted to 0.13 nM. The reaction system was placed at 30° C. and the reaction was carried out for 60 minutes. When the reaction was completed, 5 μL of ADP-Glo reagent was added to each well and the reaction was carried out at 30° C. for another 40 minutes, when the reaction was completed, 10 μL of kinase detection reagent was added to each well, then the reaction was carried out at 30° C. for still another 30 minutes, chemiluminescence was read by the PerkinElmer Envision multi-label analyzer with an integration time of 0.5 seconds.
Using the equation (Sample-Min)/(Max-Min)*100% to convert the original data to the inhibition rate, the IC50 value can be obtained by curve fitting with four parameters (obtained by log(inhibitor) vs. response in GraphPad Prism—Variable slope mode).

[1] = tested on: human lung cancer EBC-1 xenograft tumor; experiment: In vivo drug efficacy, human lung cancer EBC-1 xenograft tumor in nude mice; parameters: species or system BALB/c nude mice; settings: for Tumor volume: n = 6
Description: BALB/c nude mice, female, 6-8 weeks old, weighing about 18-20 grams, animals were raised in SPF-class animal rooms in IVC (independent air supply system, constant temperature and humidity) cages (3 per cage). All cages, bedding and water were disinfected before use. All animals had free access to standard certified commercial laboratory diets. A total of 36 mice purchased from Shanghai Lingchang Biotechnology Co., Ltd. were used for research. Each animal was inoculated with 0.1 mL (5×10^6 cells) of EBC-1 cells on the right back, when the average tumor volume reached 243 mm^3, the animals were randomly grouped and the administration was started. The test compound was orally administered daily, the dose of hydrochloride of compound 24 was 10 mg/kg, the two doses of hydrochloride of compound 25 were 10 mg/kg and 20 mg/kg, respectively, and the dose of hydrochloride of compound 29 was 10 mg/kg. The tumor diameter was measured with vernier calipers twice a week. The calculation formula of tumor volume was: V=0.5a×b^2, a and b represented the long diameter and short diameter of the tumor, respectively. The anti-tumor efficacy of the compound was evaluated by TGI (%) or the relative tumor proliferation rate T/C (%). Relative tumor proliferation rate T/C (%)=TRTV/CRTV×100% (TRTV: average RTV in the treatment group; CRTV: average RTV in the negative control group). The relative tumor volume (RTV) was calculated according to the results of tumor measurement, the calculation formula was RTV=Vt/V0, wherein V0 was the tumor volume measured at the time of the grouping administration (i.e. D0), Vt was the tumor volume at a certain measurement, and TRTV and CRTV were taken on the same day. TGI (%) reflected the tumor growth inhibition rate. TGI (%)=[(1−(average tumor volume of a certain treatment group after administration-average tumor volume of the treatment group at the beginning of administration))/(average tumor volume of the solvent control group after the administration-average tumor volume of the solvent control group at the beginning of the administration)]×100%. Statistical analysis was performed based on RTV data at the end of the experiment, and SPSS software was used for analysis.

| IC50 (c-Met enzyme) | Compound | IC50 (EBC-1 cells; Homo sapiens, EBC-1, 72 h) | also measured |
| --- | --- | --- | --- |
|  | N#Cc1ccc2nc3n(Cc4cccc(-c5ncc(OCC6CCN(C7CCC7)CC6)cn5)c4)c(=O)ccn3c2c1 [Hydrochloride of compound 45] |  | IC50 (EBC-1 cells): 19.3 nM |
| 10 nM | CN1CCC(COc2cnc(-c3cccc(Cn4c5c(ccc4=O)-c4cc(C#N)ccc4C5=O)c3)nc2)CC1 [Formate of compound 2] | 5.79 nM |  |
| 45 nM | CN1CCC(COc2cnc(-c3cccc(Cn4c5c(cc(F)c4=O)-c4cc(C#N)ccc4C5(F)F)c3)nc2)CC1 [Hydrochloride of compound 16] | 135 nM |  |
| 15.7 nM | CN1CCC(COc2cnc(-c3cccc(Cn4c(=O)ccn5c6cc(C#N)ccc6cc45)c3)nc2)CC1 [Hydrochloride of compound 10] | 31.6 nM |  |
| 6.31 nM | CCN1CCC(COc2cnc(-c3ccc(F)c(Cn4c(=O)ccn5c6cc(C#N)ccc6nc45)c3)nc2)CC1 [Hydrochloride of compound 29] | 10.3 nM | Tumor volume ([1]; 10 mg/kg oral daily (stopped after 15 days), day 18, mean ± standard error): 218 ± 50 mm^3; Tumor volume ([1]; 10 mg/kg oral daily (stopped after 15 days), day 21, mean ± standard error): 243 ± 56 mm^3; Tumor volume ([1]; 10 mg/kg oral daily (stopped after 15 days), day 25, mean ± standard error): 337 ± 83 mm^3; Tumor volume ([1]; 10 mg/kg oral daily (stopped after 15 days), day 25, mean ± standard error, listed as hydrochloride of compound 29): 337 mm^3; Tumor volume ([1]; 10 mg/kg oral daily (stopped after 15 days), day 27, mean ± standard error): 412 ± 100 mm^3; TGI (tumor growth inhibition rate) ([1]; 10 mg/kg oral daily, 25th day): 94.8%; TRTV/CRTV (relative tumor proliferation rate T/C) ([1]; 10 mg/kg oral daily, 25th day): 16.2%; Tumor volume ([1]; 10 mg/kg oral daily, day 0, mean ± standard error): 243 ± 17 mm^3; Tumor volume ([1]; 10 mg/kg oral daily, day 4, mean ± standard error): 299 ± 13 mm^3; Tumor volume ([1]; 10 mg/kg oral daily, day 7, mean ± standard error): 318 ± 21 mm^3; Tumor volume ([1]; 10 mg/kg oral daily, day 11, mean ± standard error): 294 ± 27 mm^3; Tumor volume ([1]; 10 mg/kg oral daily, day 14, mean ± standard error): 205 ± 37 mm^3 |
|  | CN1CCC(COc2cnc(-c3cccc(Cn4c(=O)ccn5c6cc(C#N)cnc6nc45)c3)nc2)CC1 [Hydrochloride of compound 32] | 816 nM |  |
| 167 nM | CN1CCC(COc2cnc(-c3cccc(Cn4c5c(ccc4=O)-c4cc(F)ccc4C5(F)F)c3)nc2)CC1 [Formate of compound 4] |  |  |
|  | CC(C)N1CCC(COc2cnc(-c3cccc(Cn4c(=O)ccn5c6cc(C#N)cnc6nc45)c3)nc2)CC1 [Hydrochloride of compound 33] | 899 nM |  |
| 6.46 nM | CN1CCC(COc2cnc(-c3cccc(Cn4c(=O)ccc5c4nc4ccc(C#N)cn45)c3)nc2)CC1 [Hydrochloride of compound 23] | 16.8 nM |  |
| 11.6 nM | COCCN1CCC(COc2cnc(-c3cccc(Cn4c(=O)ccn5c6cc(C#N)ccc6nc45)c3)nc2)CC1 [Hydrochloride of compound 35] | 5.8 nM |  |
| 24.9 nM | CN1CCC(COc2cnc(-c3cccc(Cn4c(=O)ccc5c6cc(C#N)ccc6sc54)c3)nc2)CC1 [Hydrochloride of compound 6] | 62.8 nM |  |
| 3.26 nM | CN1CCC(COc2cnc(-c3cccc(Cn4c(=O)ccn5c6cc(C#N)ccc6nc45)c3)nc2)CC1 [Hydrochloride of compound 11] | 6.99 nM |  |
| 13.4 nM | CC(C)N1CCC(COc2cnc(-c3cccc(Cn4c5c(ccc4=O)-c4cc(C#N)ccc4C5=O)c3)nc2)CC1 [Hydrochloride of compound 19] | 14.1 nM |  |
| 15.2 nM | CS(=O)(=O)CCN1CCC(COc2cnc(-c3cccc(Cn4c(=O)ccn5c6cc(C#N)ccc6nc45)c3)nc2)CC1 [Hydrochloride of compound 42] |  |  |
| 21.5 nM | CN1CCC(COc2cnc(-c3cccc(Cn4c(=O)c(F)cc5c6cc(C#N)ccc6sc54)c3)nc2)CC1 [Hydrochloride of compound 8] | 36 nM |  |
| 42 nM | CCN1CCC(COc2cnc(-c3cccc(Cn4c(=O)c(F)cn5c6cc(C#N)ccc6nc45)c3)nc2)CC1 [Hydrochloride of compound 13] | 133 nM |  |
| 5.06 nM | CCN1CCC(COc2cnc(-c3cccc(Cn4c5c(ccc4=O)-c4cc(C#N)ccc4C5=O)c3)nc2)CC1 [Hydrochloride of compound 12] | 6.66 nM |  |
| 131 nM | CN1CCC(COc2cnc(-c3cccc(Cn4c5c(ccc4=O)-c4cc(C#N)ccc4OC5)c3)nc2)CC1 [Formate of compound 5] | 585 nM |  |
|  | CC(C)N1CC(COc2cnc(-c3cccc(Cn4c(=O)ccn5c6cc(C#N)ccc6nc45)c3)nc2)C1 [Hydrochloride of compound 46] | 12.2 nM |  |
| 21.8 nM | CN1CCC(COc2cnc(-c3cccc(Cn4c(=O)ccn5c6ccc(C#N)cc6nc45)c3)nc2)CC1 [Hydrochloride of compound 9] | 31.8 nM |  |
|  | N#Cc1ccc2nc3n(Cc4cccc(-c5ncc(OCC6CCN(C7CCC7)CC6)cn5)c4)c(=O)ccn3c2c1 [Hydrochloride of compound 44] |  | IC50 (EBC-1 cells): 6.83 nM |
| 42 nM | CN1CCC(COc2cnc(-c3cccc(Cn4c5c(ccc4=O)-c4cc(C#N)ccc4C5(F)F)c3)nc2)CC1 [Formate of compound 1] | 133 nM |  |
| 58 nM | CN1CC2(CC(Oc3cnc(-c4cccc(Cn5c(=O)ccn6c7cc(C#N)ccc7nc56)c4)nc3)C2)C1 [Hydrochloride of compound 28] | 66 nM |  |
| 16 nM | CN1CCC(COc2cnc(-c3cccc(Cn4c5c(ccc4=O)-c4cc(F)ccc4C5=O)c3)nc2)CC1 [Formate of compound 3] | 32.8 nM |  |
|  | CN(C)CCN1CCC(COc2cnc(-c3cccc(Cn4c(=O)ccn5c6cc(C#N)ccc6nc45)c3)nc2)CC1 [Compound 31] | 493 nM |  |
| 17.7 nM | CN1CCC(COc2cnc(-c3cccc(Cn4c(=O)ccc5c4nn4ccc(C#N)cc54)c3)nc2)CC1 [Hydrochloride of compound 27] | 38 nM |  |
| 3.12 nM | N#Cc1ccc2nc3n(Cc4cccc(-c5ncc(OCC6CCN(C7COC7)CC6)cn5)c4)c(=O)ccn3c2c1 [Hydrochloride of compound 26] | 16.2 nM |  |
|  | CCCN1CCC(COc2cnc(-c3cccc(Cn4c(=O)ccn5c6cc(C#N)ccc6nc45)c3)nc2)CC1 [Hydrochloride of compound 43] | 7.32 nM |  |

| Compound | IC50 (c-Met enzyme) | IC50 (EBC-1 cells; Homo sapiens, EBC-1, 72 h) | also measured |
| --- | --- | --- | --- |
| CN1CCN(C(=O)Oc2cnc(-c3cccc(Cn4c5c(ccc4=O)-c4cc(C#N)ccc4C5=O)c3)nc2)CC1 [Hydrochloride of compound 20] | 26 nM |  |  |
